pIC50: −log10 of the molar value. Where two headings read alike, the source gives them in different places.

The results in this text go back to patent US20210177828A1, “TAM FAMILY KINASE /AND CSF1R KINASE INHIBITOR AND USE THEREOF” (Nanjing Transthera Biosciences Co., Ltd., priority 2018, published 2021).

For one series, the target named is T1, H1299 cell pAxl (Homo sapiens, UniProt P30530).
T1 construct: endogenous in cells; host or cells: H1299
T1 sequence (P30530 26-894): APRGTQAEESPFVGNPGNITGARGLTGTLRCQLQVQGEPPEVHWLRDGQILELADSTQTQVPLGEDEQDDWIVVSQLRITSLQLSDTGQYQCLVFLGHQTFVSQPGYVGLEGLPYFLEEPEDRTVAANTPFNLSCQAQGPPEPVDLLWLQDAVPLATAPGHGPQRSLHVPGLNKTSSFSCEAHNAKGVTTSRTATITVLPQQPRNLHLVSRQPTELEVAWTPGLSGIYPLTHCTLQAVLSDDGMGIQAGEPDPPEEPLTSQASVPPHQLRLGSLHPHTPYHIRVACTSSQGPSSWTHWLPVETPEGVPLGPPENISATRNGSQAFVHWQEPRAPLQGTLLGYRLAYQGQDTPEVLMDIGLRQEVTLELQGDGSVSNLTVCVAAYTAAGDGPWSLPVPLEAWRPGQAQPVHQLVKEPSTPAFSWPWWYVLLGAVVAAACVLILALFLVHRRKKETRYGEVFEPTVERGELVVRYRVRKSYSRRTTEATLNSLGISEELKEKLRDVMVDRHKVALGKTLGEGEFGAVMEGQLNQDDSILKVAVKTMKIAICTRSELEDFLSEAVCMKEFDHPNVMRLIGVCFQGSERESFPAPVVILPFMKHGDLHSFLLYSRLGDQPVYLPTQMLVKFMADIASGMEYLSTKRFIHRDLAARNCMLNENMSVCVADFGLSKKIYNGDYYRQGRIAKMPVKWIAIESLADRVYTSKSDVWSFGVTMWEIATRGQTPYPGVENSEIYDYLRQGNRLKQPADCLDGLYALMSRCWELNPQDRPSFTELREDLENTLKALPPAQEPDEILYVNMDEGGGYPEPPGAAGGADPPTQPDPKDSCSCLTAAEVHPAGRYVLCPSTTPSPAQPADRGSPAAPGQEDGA
Briefly: Inhibitory activity on cell pAxl, H1299 cells, hGAS6 stimulation, Western Blot. It is filed as cell-based. As to conditions: hGAS6 200 ng/mL. As to the method: H1299 is a non-small cell lung cancer cell.
H1299 cells were inoculated to a 6-well plate (containing 10% FBS 1640 medium, 5×10^5 cells per well) and adherently cultivated at 37° C., and 5% CO2 for 18 hrs. The cells were starved overnight, and then compound solutions with different concentrations were added. The compounds had final concentrations of 1.1, 3.3, 10 and 30 nM. […] There was a medium containing 1‰DMSO in the negative control well. The cells were incubated at 37° C., and 5% CO2 for 60 min, and then hGAS6 (R&D, final concentration: 200 ng/mL) was added to each well. The cells were further incubated for 60 min, and then the total protein of the cells was extracted for Western Blot experiment. IC50 values were calculated with GraphPad 5.0 software, and the inhibitory activities of the compounds on cell pAxl were detected.
On the technique in general: Immunoblotting shows a protein as a band on a membrane.

Series [1] is described as follows: PK assay in rat (IV and PO). It is filed as in vivo. As to conditions: plasma, SD rats; for bioavailability: read-out: F % (absolute bioavailability); for clearance: read-out: Cl_obs iv (clearance rate) (converted); for Vd: read-out: Vz_obs iv (apparent volume of distribution); for Tmax: read-out: Tmax po (time of maximum observed plasma concentration). As to the method: The experimental compounds were each dissolved in a mixture of 5% DMSO+20% (30% solutol)+75% saline to prepare compound solutions. The compound solutions were intragastrically administered to SD rats at a dosage of 5.0 mg/kg. The blood was sampled at time points of 15 min, 30 min, 1 hr, 2 hrs, 4 hrs, 6 hrs, 8 hrs and 24 hrs after administration.
The experimental compounds were each dissolved in a mixture of 5% DMSO+20% (30% solutol)+75% saline to prepare compound solutions. The compound solutions were intravenously administered to SD rats at a dosage of 1 mg/kg. The blood was sampled at time points of 5 min, 15 min, 30 min, 1 hr, 2 hrs, 4 hrs, 6 hrs, 8 hrs and 24 hrs after administration.
The animals were fixed, and the tails were heated under a water bath 10 min before each sampling time. About 100 μL of blood was collected via the tail vein, and the collected blood was placed in an anticoagulant tube containing EDTA-K2. The blood samples were centrifuged at 8,000 rpm for 6 min at 4° C. to obtain plasma samples, and the plasma samples were prepared within 30 min after the blood collection. The plasma samples were stored in a refrigerator at −80° C. before test.
The sample to be tested was taken out from the −80° C. refrigerator, naturally thawed at room temperature, and vortexed for 5 min. 20 μL of plasma sample was pipetted to a 1.5 mL centrifuge tube, and 200 μL of internal standard working solution (a solution of tolbutamide in methanol, 100 ng/mL) was added. The resulting mixture was thoroughly mixed, vortexed for 5 min, and centrifuged at 12,000 rpm for 5 min. 50 μL of supernatant was precisely pipetted to a 96-well plate with 150 μL of water per well, and the resulting mixture was vortexed for 5 min and then used for LC-MS/MS analysis.

Setting [2] is: IV 1 mg/kg, read-out: AUClast iv (area under plasma concentration-time curve, 0-24 h).
Setting [3] is: IV 1 mg/kg, read-out: tz1/2 iv (terminal half-life) (converted).
Setting [4] is: PO 5 mg/kg, read-out: AUClast po (area under plasma concentration-time curve, 0-24 h).
The mark [5] stands for this setting: PO 5 mg/kg, read-out: tz1/2 po (terminal half-life) (converted).

On H1299 cell pAxl, `COc1cc2nccc(Oc3ccc(NC(=O)c4nn(C5CCOCC5)cc(-c5ccc(F)cc5)c4=O)nc3)c2cc1OC` [Compound 34, N-(5-((6,7-dimethoxyquinolin-4-yl)oxy)pyridin-2-yl)-5-(4-fluorophenyl)-4-oxo-1-(tetrahydro-2H-pyran-4-yl)-1,4-dihydropyridazin-3-carboxamide] showed a pIC50 of more than 8.96. Further, the bioavailability in series [1] (IV 1 mg/kg, PO 5 mg/kg) came to 65.7%. Besides, the AUC(0-t) in series [1] (setting [2]) stood at 8440 ng·h/mL; in series [1] (setting [4]) it was 28000 ng·h/mL. Besides, in series [1] (IV 1 mg/kg), the clearance is 1.83 mL/min/kg. In addition, the Vd in series [1] (IV 1 mg/kg) was 0.84 L/kg. Besides, the half-life was 5.18 h in series [1] (setting [3]) and 4.56 h in series [1] (setting [5]). The Tmax in series [1] (PO 5 mg/kg) was determined as 6 h.

As to `COc1cc2nccc(Oc3ccc(NC(=O)c4nn(C5CCOCC5)cc(-c5ccc(C)cc5)c4=O)cc3F)c2cc1OC` [Compound 28], the pIC50 against H1299 cell pAxl is 8.96.

In the case of `COc1cc2nccc(Oc3ccc(NC(=O)c4nn(C5CCOCC5)cc(-c5ccc(C)cc5)c4=O)nc3)c2cc1OC` [Compound 17, N-(5-((6,7-dimethoxyquinolin-4-yl)oxy)pyridin-2-yl)-4-oxo-1-(tetrahydro-2H-pyran-4-yl)-5-(p-tolyl)-1,4-dihydropyridazin-3-carboxamide], the bioavailability in series [1] (IV 1 mg/kg, PO 5 mg/kg) was 70.7%. Besides, the AUC(0-t) in series [1] (setting [2]) was 4860 ng·h/mL; in series [1] (setting [4]), 17200 ng·h/mL. The clearance in series [1] (IV 1 mg/kg) was 3.5 mL/min/kg. The Vd in series [1] (IV 1 mg/kg) was determined as 1.18 L/kg. In addition, the half-life in series [1] (setting [3]) is 3.98 h; in series [1] (setting [5]), 3.5 h. Further, the Tmax in series [1] (PO 5 mg/kg) worked out at 6 h.

As to `COc1cc2nccc(Oc3ccc(NC(=O)c4cn(C5CCOCC5)cc(-c5ccc(F)cc5)c4=O)nc3)c2cc1OC` [Compound 27, N-(5-((6,7-dimethoxyquinolin-4-yl)oxy)pyridin-2-yl)-5-(4-fluorophenyl)-4-oxo-1-(tetrahydro-2H-pyran-4-yl)-1,4-dihydropyridin-3-carboxamide], the pIC50 against H1299 cell pAxl was more than 8.96.

Take `Cc1ccc(-c2cn(C3CCOCC3)nc(C(=O)Nc3ccc(Oc4ccnc5cc6c(cc45)OCO6)cn3)c2=O)cc1` [Compound 29, N-(5-([1,3]dioxolo[4,5-g]quinolin-8-yloxy)pyridin-2-yl)-4-oxo-1-(tetrahydro-2H-pyran-4-yl)-5-(p-tolyl)-1,4-dihydropyridazin-3-carboxamide]: on H1299 cell pAxl, the negative logarithm of the IC50 (pIC50) was 7.52.

`COc1cc2nccc(Oc3cnc(NC(=O)c4cn(C5CCOCC5)cc(-c5ccc(F)cc5)c4=O)nc3)c2cc1OC` [Compound 31, N-(5-((6,7-dimethoxyquinolin-4-yl)oxy)pyrimidin-2-yl)-5-(4-fluorophenyl)-4-oxo-1-(tetrahydro-2H-pyran-4-yl)-1,4-dihydropyridin-3-carboxamide] gave a pIC50 against H1299 cell pAxl of more than 8.48.

As to `COc1cc2nccc(Oc3ccc(NC(=O)c4cc(-c5ccc(C)cc5)cn(CC5CCOCC5)c4=O)nc3)c2cc1OC` [Compound 13, N-(5-((6,7-dimethoxyquinolin-4-yl)oxy)pyridin 2yl)-2-oxo-1-((tetrahydro-2H-pyran-4-yl)methyl)-5-(p-tolyl)-1,2-dihydropyridin-3-carboxamide], the bioavailability in series [1] (IV 1 mg/kg, PO 5 mg/kg) is 46.4%. The AUC(0-t) is 4220 ng·h/mL in series [1] (setting [2]) and 9790 ng·h/mL in series [1] (setting [4]). Besides, the clearance in series [1] (IV 1 mg/kg) was 3.33 mL/min/kg. Also, the Vd in series [1] (IV 1 mg/kg) was 1.65 L/kg. Besides, the half-life is 9.08 h in series [1] (setting [3]) and 8.12 h in series [1] (setting [5]). Moreover, the Tmax in series [1] (PO 5 mg/kg) is 4 h.

`COc1cc2nccc(Oc3cnc(NC(=O)c4nn(C5CCOCC5)cc(-c5ccc(F)cc5)c4=O)nc3)c2cc1OC` [Compound 33, N-(5-((6,7-dimethoxyquinolin-4-yl)oxy)pyrimidin-2-yl)-5-(4-fluorophenyl)-4-oxo-1-(tetrahydro-2H-pyran-4-yl)-1,4-dihydropyridazin-3-carboxamide] gave a pIC50 against H1299 cell pAxl of 8.48.

`COc1cc2nccc(Oc3cnc(NC(=O)c4nn(C5CCOCC5)cc(-c5ccc(C)cc5)c4=O)nc3)c2cc1OC` [Compound 18, N-(5-((6,7-dimethoxyquinolin-4-yl)oxy)pyrimidin-2-yl)-4-oxo-1-(tetrahydro-2H-pyran-4-yl)-5-(p-tolyl)-1,4-dihydropyridazin-3-carboxamide]: the bioavailability in series [1] (IV 1 mg/kg, PO 5 mg/kg) was 34.6%. Also, the results for the AUC(0-t) in series [1] (setting [2]) and in series [1] (setting [4]) were 1500 ng·h/mL and 2600 ng·h/mL, respectively. Further, the clearance in series [1] (IV 1 mg/kg) is 11 mL/min/kg. Besides, the Vd in series [1] (IV 1 mg/kg) was 0.92 L/kg. Further, the half-life in series [1] (setting [3]) is 0.96 h; in series [1] (setting [5]), 1.17 h. Also, the Tmax in series [1] (PO 5 mg/kg) was found to be 0.5 h.

With `COc1cc2nccc(Oc3ccc(NC(=O)c4nn(CC5CCOCC5)cc(-c5ccc(C)cc5)c4=O)nc3)c2cc1OC` [Compound 2, N-(5-((6,7-dimethoxyquinolin-4-yl)oxy)pyridin-2-yl)-4-oxo-1-((tetrahydro-2H-pyran-4-yl)methyl)-5-(p-tolyl)-1,4-dihydropyridazin-3-carboxamide], the bioavailability in series [1] (IV 1 mg/kg, PO 5 mg/kg) was found to be 31.3%. In addition, the AUC(0-t) in series [1] (setting [2]) stood at 4070 ng·h/mL; in series [1] (setting [4]) it was 6620 ng·h/mL. The clearance in series [1] (IV 1 mg/kg) is 4 mL/min/kg. Moreover, the Vd in series [1] (IV 1 mg/kg) was 1.19 L/kg. The half-life in series [1] (setting [3]) is 3.47 h; in series [1] (setting [5]), 3.14 h. For the same molecule, in series [1] (PO 5 mg/kg), the Tmax stood at 4 h.

With `COc1cc2nccc(Oc3ccc(NC(=O)c4cn(C5CCOCC5)cc(-c5ccc(C)cc5)c4=O)nc3)c2cc1OC` [Compound 19, N-(5-((6,7-dimethoxyquinolin-4-yl)oxy)pyridin-2-yl)-4-oxo-1-(tetrahydro-2H-pyran-4-yl)-5-(p-tolyl)-1,4-dihydropyridin-3-carboxamide], in series [1] (IV 1 mg/kg, PO 5 mg/kg), the bioavailability was 40.5%. Also, the results for the AUC(0-t) in series [1] (setting [2]) and in series [1] (setting [4]) were 2440 ng·h/mL and 5450 ng·h/mL, respectively. Moreover, the clearance in series [1] (IV 1 mg/kg) was 6.17 mL/min/kg. For the same molecule, the Vd in series [1] (IV 1 mg/kg) turned out to be 1.3 L/kg. For the same molecule, the half-life in series [1] (setting [3]) is 2.44 h; in series [1] (setting [5]) it was 2.56 h. In addition, the Tmax in series [1] (PO 5 mg/kg) was 1 h.

`COc1cc2nccc(Oc3ccc(NC(=O)c4cc(CC5CCOCC5)cn(-c5ccc(F)cc5)c4=O)nc3)c2cc1OC` [Compound 32, N-(5-((6,7-dimethoxyquinolin-4-yl)oxy)pyridin-2-yl)-1-(4-fluorophenyl)-2-oxo-5-((tetrahydro-2H-pyran-4-yl)methy 1)-1,2-dihydropyridin-3-carboxamide]: at H1299 cell pAxl, the negative-log IC50 (pIC50) was more than 8.96.

Regarding `Cc1ccc(-c2cn(C3CCOCC3)nc(C(=O)Nc3ccc(Oc4ccnc5cc6c(cc45)OCCO6)cn3)c2=O)cc1` [Compound 30, N-(5-((2,3-dihydro-[1,4]dioxino[2,3-g]quinolin-9-yl)oxy)pyridin-2-yl)-4-oxo-1-(tetrahydro-2H-pyran-4-yl)-5-(p-tolyl)-1,4-dihydropyridazin-3-carboxamide], the pIC50 at H1299 cell pAxl was less than 8.00.

The term pIC50 denotes the IC50 on a negative log10 scale, so that one unit is a factor of ten. A higher pIC50 goes with a low IC50. As usually defined, the bioavailability is dose-corrected exposure relative to a reference, in per cent.
